Source: the supplement of paper PMC10307832

Tests used:
Assay in all cases: relative viability (nuclei count vs DMSO), 5 days (fraction); higher = more cells survive
[1] = compound: CC(C)N(CCCNC(=O)Nc1ccc(C(C)(C)C)cc1)C[C@H]1O[C@@H](n2ccc3c(N)ncnc32)[C@H](O)[C@@H]1O + COc1cccc2cc(-c3nc([C@H]4CC[C@H](C(=O)O)CC4)n4ncnc(N)c34)[nH]c12 [OSI-027] (partner 0.5 µM)
In short: (§1)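 Relative viability is defined as nuclei in treated wells over nuclei in vehicle wells. Duplicate plates were run and medians reported. Lung cancer cell lines in 1536-well plates were dosed by pin tool one day after seeding, with one drug or with a fixed anchor-drug dose plus five library-drug doses (not always all listed) in √10 steps, and nuclei were counted after 5 days.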

Shikonin + Decitabine = compound: CC(C)=CC[C@@H](O)C1=CC(=O)c2c(O)ccc(O)c2C1=O [Shikonin] + Nc1ncn([C@H]2C[C@H](O)[C@@H](CO)O2)c(=O)n1 [Decitabine] (partner 2 µM)
In short: as §1

Shikonin + OSI-027 = compound: CC(C)=CC[C@@H](O)C1=CC(=O)c2c(O)ccc(O)c2C1=O [Shikonin] + COc1cccc2cc(-c3nc([C@H]4CC[C@H](C(=O)O)CC4)n4ncnc(N)c34)[nH]c12 [OSI-027] (partner 0.5 µM)
In short: as §1

Shikonin + Crizotinib = compound: CC(C)=CC[C@@H](O)C1=CC(=O)c2c(O)ccc(O)c2C1=O [Shikonin] + C[C@@H](Oc1cc(-c2cnn(C3CCNCC3)c2)cnc1N)c1c(Cl)ccc(F)c1Cl [Crizotinib] (partner 1 µM)
In short: as §1

Cell Line	relative viability ([1]; first compound 0.08 µM)	relative viability ([1]; first compound 0.253 µM)	relative viability ([1]; first compound 0.8 µM)	relative viability ([1]; first compound 2.53 µM)	relative viability ([1]; first compound 8 µM)	relative viability (Shikonin + Decitabine; first compound 0.01 µM)	relative viability (Shikonin + Decitabine; first compound 0.1 µM)	relative viability (Shikonin + Decitabine; first compound 0.3162 µM)	relative viability (Shikonin + Decitabine; first compound 1 µM)	relative viability (Shikonin + OSI-027; first compound 0.01 µM)	relative viability (Shikonin + OSI-027; first compound 0.1 µM)	relative viability (Shikonin + OSI-027; first compound 0.3162 µM)	relative viability (Shikonin + OSI-027; first compound 1 µM)	relative viability (Shikonin + Crizotinib; first compound 0.01 µM)	relative viability (Shikonin + Crizotinib; first compound 0.1 µM)	relative viability (Shikonin + Crizotinib; first compound 0.3162 µM)	relative viability (Shikonin + Crizotinib; first compound 1 µM)
HCC-78	0.376	0.388	0.356	0.364	0.346	0.71	0.638	0.721	0.732	0.338	0.377	0.353	0.401	0.325	0.388	0.357	0.377
IA-LM														1.06		1.11	0.667
NCI-H441	0.589	0.587		0.735	0.661	0.249	0.26	0.258	0.206	0.539	0.831	0.619	0.624	0.921	0.782	0.887	0.771
NCI-H322M	0.514	0.618	0.575	0.693	0.579	0.736	0.723	0.714	0.664	0.548	0.562	0.53	0.509	0.866	0.997	0.855	0.882
NCI-H520	0.181	0.248	0.235	0.348	0.267	0.47	0.598	0.454	0.401	0.288	0.243	0.209	0.304		0.878	0.608	0.842
COR-L23	0.758	0.739	0.697	0.735	0.689	0.382	0.516	0.399	0.398	0.854	0.778	0.732	0.729	0.735	0.786	0.601	0.689
NCI-H2126	0.627	0.77	0.734	0.715	0.672	0.593	0.589	0.628	0.559	0.709	0.638	0.735	0.67	1.08	1.21	1.1	1.04
LC-2-ad	0.845	0.823	0.892	0.816	0.855	0.75	0.849	0.874	0.89	0.815	0.913	0.816	0.876	0.404	0.45	0.423	0.364
NCI-H1915	0.58	0.732	0.651	0.645	0.624	0.271	0.286	0.268	0.258	0.615	0.737	0.634	0.595	0.904	1.1	0.915	1.07
NCI-H1793	0.27		0.228	0.274	0.291	0.513	0.565	0.451	0.456	0.223	0.271	0.291	0.301				
NCI-H2085	0.847	0.621	0.705	0.757	1	0.528	0.515	0.57	0.532	0.832	0.973	0.73	0.773	0.874	0.857	0.881	0.585
